Measured values as given in US8134015B2, “Compound inhibiting in vivo phosphorous transport and medicine containing the same” (Kyowa Hakko Kirin Co., Ltd., priority 2003, dated 2012).

Each compound was assayed against T1, human NaPi-2a (Homo sapiens, UniProt Q06495) (assay: Sodium-dependent phosphate uptake of Xenopus oocytes which expressed NaPi-2a (32P)). Settings: Xenopus oocytes expressing human NaPi-2a, FIG. 3, FIG. 4.
T1 construct: expressed in transfected cells
T1 sequence (Q06495 1-639): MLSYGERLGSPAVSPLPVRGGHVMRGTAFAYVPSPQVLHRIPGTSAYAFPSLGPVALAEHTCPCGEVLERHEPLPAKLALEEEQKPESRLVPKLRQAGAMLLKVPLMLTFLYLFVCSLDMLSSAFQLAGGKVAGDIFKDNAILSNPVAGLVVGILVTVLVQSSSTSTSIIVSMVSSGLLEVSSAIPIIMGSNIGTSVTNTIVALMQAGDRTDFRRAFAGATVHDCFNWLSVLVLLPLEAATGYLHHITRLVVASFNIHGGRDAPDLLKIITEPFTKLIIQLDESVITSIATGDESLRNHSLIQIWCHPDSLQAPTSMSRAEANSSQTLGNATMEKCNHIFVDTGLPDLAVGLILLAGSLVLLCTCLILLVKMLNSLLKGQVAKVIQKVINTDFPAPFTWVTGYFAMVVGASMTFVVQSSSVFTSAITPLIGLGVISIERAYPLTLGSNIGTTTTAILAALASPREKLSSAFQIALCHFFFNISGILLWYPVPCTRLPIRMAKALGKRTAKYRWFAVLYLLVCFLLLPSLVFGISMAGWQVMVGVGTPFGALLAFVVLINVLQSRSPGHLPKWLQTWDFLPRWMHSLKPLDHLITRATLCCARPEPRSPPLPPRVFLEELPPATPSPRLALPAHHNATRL
Type: cell-based
Description: Experiment of Sodium-Dependent Phosphate Uptake of Xenopus oocytes which Expressed NaPi-2a
In the test, a group with the addition of choline chloride (Choline Cl) was used as a negative control for nonspecific uptake, and PFA (phosphonoformic acid) was used as a positive control for phosphate transport inhibition.
For `COc1ccc(C(=O)Nc2ccccc2C(=O)N/N=C/C=C/c2ccccc2)cc1OC` [Compound 1, 3,4-Dimethoxy-N-[2-(3-phenyl-allylidene-hydrazinocarbonyl)-phenyl]-benzamide], the “phosphate uptake inhibitory activity against NaPi-2a” value was “concentration-dependent inhibitory activity”.

Same assay, conditions: phosphate uptake, Xenopus oocytes expressing human NaPi-2a; five concentration levels
With `O=C(Nc1ccc(Br)cc1C(=O)N/N=C/c1ccc(Cl)c(C(F)(F)F)c1)c1ccc(CSc2ccncc2)cc1` [Compound 260, N-[4-Bromo-2-(4-chloro-3-trifluoromethyl-benzylidene-hydrazinocarbonyl)-phenyl]-4-(pyridin-4-ylsulfanylmethyl)-benzamide] the IC50 was < 3 µM.

Each compound was assayed against T2, rat NaPi-2b (Rattus norvegicus, UniProt Q9JJ09) (assay: Sodium-dependent phosphate uptake of Xenopus oocytes which expressed NaPi-2b (32P)). Settings: Xenopus oocytes expressing rat NaPi-2b, 32P radioactive phosphorus; read-out: IC50 (phosphate uptake inhibitory activity).
T2 construct: expressed in transfected cells; host or cells: Xenopus oocytes injected with cRNA
T2 sequence (Q9JJ09 1-695): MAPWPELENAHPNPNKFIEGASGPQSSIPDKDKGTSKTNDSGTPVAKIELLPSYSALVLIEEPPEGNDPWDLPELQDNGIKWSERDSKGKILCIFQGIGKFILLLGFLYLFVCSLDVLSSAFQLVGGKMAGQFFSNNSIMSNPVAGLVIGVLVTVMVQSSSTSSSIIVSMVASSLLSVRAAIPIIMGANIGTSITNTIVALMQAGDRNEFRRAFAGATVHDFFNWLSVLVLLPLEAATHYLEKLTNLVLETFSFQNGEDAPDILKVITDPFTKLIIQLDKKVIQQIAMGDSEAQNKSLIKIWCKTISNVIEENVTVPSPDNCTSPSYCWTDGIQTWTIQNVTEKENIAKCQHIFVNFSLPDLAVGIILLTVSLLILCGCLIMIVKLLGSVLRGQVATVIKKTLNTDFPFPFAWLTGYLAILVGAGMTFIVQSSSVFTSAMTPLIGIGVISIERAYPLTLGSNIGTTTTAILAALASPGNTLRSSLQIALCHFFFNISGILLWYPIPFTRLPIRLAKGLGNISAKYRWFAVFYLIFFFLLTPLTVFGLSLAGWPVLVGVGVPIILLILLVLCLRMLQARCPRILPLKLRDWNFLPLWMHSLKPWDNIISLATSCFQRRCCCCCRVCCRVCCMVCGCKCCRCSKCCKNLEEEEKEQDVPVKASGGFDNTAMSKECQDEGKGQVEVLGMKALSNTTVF
Type: cell-based
Procedure, shortened: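 Inhibition at 300 μM and 100 μM was read off one inhibition curve of 32P phosphate uptake. Uptake was measured in Xenopus oocytes cultured 2 days after injection of cRNA for cloned rat NaPi-2b.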
Work on `COc1ccc(C(=O)Nc2ccccc2C(=O)N/N=C/C=C/c2ccccc2)cc1OC` [Compound 1, 3,4-Dimethoxy-N-[2-(3-phenyl-allylidene-hydrazinocarbonyl)-phenyl]-benzamide] yielded an IC50 of 9110 nM.
In the case of `O=C(Nc1ccc(Br)cc1C(=O)N/N=C/c1ccc(Cl)c(C(F)(F)F)c1)c1ccc(CSc2ccncc2)cc1` [Compound 260, N-[4-Bromo-2-(4-chloro-3-trifluoromethyl-benzylidene-hydrazinocarbonyl)-phenyl]-4-(pyridin-4-ylsulfanylmethyl)-benzamide], the IC50 is reported as < 3000 nM.
`CCN(CC)CCN(C)Cc1cccc(C(=O)Nc2ccc(OCCCCF)cc2C(=O)N/N=C/c2ccc(C)cc2)c1` [Compound 1058, 3-{[(2-Diethylamino-ethyl)-methyl-amino]-methyl}-N-[4-(4-fluoro-butoxy)-2-(4-methyl-benzylidene-hydrazinocarbonyl)-phenyl]-benzamide] showed an IC50 of 1070 nM.
In the case of `CCN(CC)CCN(C)Cc1cccc(C(=O)Nc2ccc(OCCCCF)cc2C(=O)N/N=C/c2ccc(C)c(C)c2)c1` [Compound 1059, 3-{[(2-Diethylamino-ethyl)-methyl-amino]-methyl}-N-[2-(3,4-dimethyl-benzylidene-hydrazinocarbonyl)-4-(4-fluoro-butoxy)-phenyl]-benzamide], the IC50 is reported as 430 nM.
For `CCN(CC)CCN(C)Cc1cccc(C(=O)Nc2ccc(OCCCCF)cc2C(=O)N/N=C/c2ccc(Cl)c(C(F)(F)F)c2)c1` [Compound 1060, N-[2-(4-Chloro-3-trifluoromethyl-benzylidene-hydrazinocarbonyl)-4-(4-fluoro-butoxy)-phenyl]-3-{[(2-diethylamino-ethyl)-methyl-amino]-methyl}-benzamide], the IC50 was 440 nM.
With `CCN(CC)CCN(C)Cc1cccc(C(=O)Nc2ccc(OCCCCF)cc2C(=O)N/N=C/c2ccc(OC)cc2)c1` [Compound 1061, 3-{[(2-Diethylamino-ethyl)-methyl-amino]-methyl}-N-[4-(4-fluoro-butoxy)-2-(4-methoxy-benzylidene-hydrazinocarbonyl)-phenyl]-benzamide] the IC50 was 1990 nM.
Work on `O=C(Nc1ccc(N2CCC(O)CC2)cc1C(=O)N/N=C/c1ccc(Cl)c(C(F)(F)F)c1)c1cccc(CSCCO)c1` [Compound 1062, N-[2-(4-Chloro-3-trifluoromethyl-benzylidene-hydrazinocarbonyl)-4-(4-hydroxy-piperidin-1-yl)-phenyl]-3-(2-hydroxy-ethylsulfanylmethyl)-benzamide] yielded an IC50 of 6760 nM.
`Cc1ccc(/C=N/NC(=O)c2cc(N3CCOCC3)ccc2NC(=O)c2cccc(CSCCO)c2)cc1C` [Compound 1064, N-[2-(3,4-Dimethyl-benzylidene-hydrazinocarbonyl)-4-morpholin-4-yl-phenyl]-3-(2-hydroxy-ethylsulfanylmethyl)-benzamide] was tested, and the IC50 was < 1000 nM.
In the case of `O=C(Nc1ccc(N2CCOCC2)cc1C(=O)N/N=C/c1ccc(Cl)c(C(F)(F)F)c1)c1cccc(CSCCO)c1` [Compound 1065, N-[2-(4-Chloro-3-trifluoromethyl-benzylidene-hydrazinocarbonyl)-4-morpholin-4-yl-phenyl]-3-(2-hydroxy-ethylsulfanylmethyl)-benzamide], the IC50 is reported as 1210 nM.
`COc1ccc(/C=N/NC(=O)c2cc(N3CCOCC3)ccc2NC(=O)c2cccc(CSCCO)c2)cc1` [Compound 1066, 3-(2-Hydroxy-ethylsulfanylmethyl)-N-[2-(4-methoxy-benzylidene-hydrazinocarbonyl)-4-morpholin-4-yl-phenyl]-benzamide] showed an IC50 of 2690 nM.
For `O=C(Nc1ccc(N2CCC(N3CCCCC3)CC2)cc1C(=O)N/N=C/c1ccc(Cl)c(C(F)(F)F)c1)c1cccc(CSCCO)c1` [Compound 1067], the IC50 was 2790 nM.
In the case of `Cc1ccc(/C=N/NC(=O)c2cc(N3CCC(C)CC3)ccc2NC(=O)c2cccc(CSCCO)c2)cc1C` [Compound 1069, N-[2-(3,4-Dimethyl-benzylidene-hydrazinocarbonyl)-4-(4-methyl-piperidin-1-yl)-phenyl]-3-(2-hydroxy-ethylsulfanylmethyl)-benzamide], the IC50 is reported as < 1000 nM.
For `CC1CCN(c2ccc(NC(=O)c3cccc(CSCCO)c3)c(C(=O)N/N=C/c3ccc(Cl)c(C(F)(F)F)c3)c2)CC1` [Compound 1070, N-[2-(4-Chloro-3-trifluoromethyl-benzylidene-hydrazinocarbonyl)-4-(4-methyl-piperidin-1-yl)-phenyl]-3-(2-hydroxy-ethylsulfanylmethyl)-benzamide], the IC50 was < 1000 nM.
`COc1ccc(/C=N/NC(=O)c2cc(N3CCC(C)CC3)ccc2NC(=O)c2cccc(CSCCO)c2)cc1` [Compound 1071, 3-(2-Hydroxy-ethylsulfanylmethyl)-N-[2-(4-methoxy-benzylidene-hydrazinocarbonyl)-4-(4-methyl-piperidin-1-yl)-phenyl]-benzamide] was tested, and the IC50 was < 1000 nM.
`CN1CCN(c2ccc(NC(=O)c3cccc(CSCCO)c3)c(C(=O)N/N=C/c3ccc(Cl)c(C(F)(F)F)c3)c2)CC1` [Compound 1072, N-[2-(4-Chloro-3-trifluoromethyl-benzylidene-hydrazinocarbonyl)-4-(4-methyl-piperazin-1-yl)-phenyl]-3-(2-hydroxy-ethylsulfanylmethyl)-benzamide] showed an IC50 of 3880 nM.
With `COc1ccc(/C=N/NC(=O)c2cc(N3CCN(C)CC3)ccc2NC(=O)c2cccc(CSCCO)c2)cc1` [Compound 1073, 3-(2-Hydroxy-ethylsulfanylmethyl)-N-[2-(4-methoxy-benzylidene-hydrazinocarbonyl)-4-(4-methyl-piperazin-1-yl)-phenyl]-benzamide] the IC50 was 20400 nM.
`CCN(CC)CCN(C)Cc1cccc(C(=O)Nc2ccc(N3CCOCC3)cc2C(=O)N/N=C/c2ccc(C)c(C)c2)c1` [Compound 1074, 3-{[(2-Diethylamino-ethyl)-methyl-amino]-methyl}-N-[2-(3,4-dimethyl-benzylidene-hydrazinocarbonyl)-4-morpholin-4-yl-phenyl]-benzamide] showed an IC50 of 1540 nM.
In the case of `CCN(CC)CCN(C)Cc1cccc(C(=O)Nc2ccc(N3CCOCC3)cc2C(=O)N/N=C/c2ccc(Cl)c(C(F)(F)F)c2)c1` [Compound 1075, N-[2-(4-Chloro-3-trifluoromethyl-benzylidene-hydrazinocarbonyl)-4-morpholin-4-yl-phenyl]-3-{[(2-diethylamino-ethyl)-methyl-amino]-methyl}-benzamide], the IC50 is reported as 1340 nM.
`CCN(CC)CCN(C)Cc1cccc(C(=O)Nc2ccc(N3CCOCC3)cc2C(=O)N/N=C/c2ccc(OC)cc2)c1` [Compound 1076, 3-{[(2-Diethylamino-ethyl)-methyl-amino]-methyl}-N-[2-(4-methoxy-benzylidene-hydrazinocarbonyl)-4-morpholin-4-yl-phenyl]-benzamide] showed an IC50 of 2570 nM.

Same assay, conditions: phosphate uptake, oocytes expressing rat NaPi-2b; 100 μM, determined from inhibition curve
For `O=C(Nc1ccc(N2CCC(CO)CC2)cc1C(=O)N/N=C/c1ccc(Cl)c(C(F)(F)F)c1)c1cccc(CSCCO)c1` [Compound 1063, N-[2-(4-Chloro-3-trifluoromethyl-benzylidene-hydrazinocarbonyl)-4-(4-hydroxymethyl-piperidin-1-yl)-phenyl]-3-(2-hydroxy-ethylsulfanylmethyl)-benzamide], the inhibition at 100 µM was 63.9%.
For `COc1ccc(/C=N/NC(=O)c2cc(N3CCC(N4CCCCC4)CC3)ccc2NC(=O)c2cccc(CSCCO)c2)cc1` [Compound 1068], the inhibition at 100 µM was 74.4%.

Same assay, conditions: phosphate uptake, oocytes expressing rat NaPi-2b; 300 μM, determined from inhibition curve
With `CCN(CC)Cc1cccc(C(=O)Nc2ccc(Cl)cc2C(=O)NOCc2ccccc2)c1` [Compound 1077] the inhibition at 300 µM was 40.2%.
